biological target: T1, NHE-1 (Homo sapiens, UniProt P19634); test: Evaluation of NHE-1 Inhibition (pHi) in HT-29 cells; type: cell-based; details: BCECF dye, 50% inhibition of the intracellular pH recovery, read-out: NHE1 HT29 pHi IC50
T1 construct: endogenous in cells; host or cells: HT-29
Procedure, shortened: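 Intracellular pH measured with BCECF in HT-29 cells after 24 h culture. Cells dye-loaded 30 min at 37° C, then acid-loaded with NH4Cl-containing choline buffer (pH 7.5) for 30 min at RT. Compounds added on an FDSS6000 fluorescence reader.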

T1 sequence (P19634 whole entry): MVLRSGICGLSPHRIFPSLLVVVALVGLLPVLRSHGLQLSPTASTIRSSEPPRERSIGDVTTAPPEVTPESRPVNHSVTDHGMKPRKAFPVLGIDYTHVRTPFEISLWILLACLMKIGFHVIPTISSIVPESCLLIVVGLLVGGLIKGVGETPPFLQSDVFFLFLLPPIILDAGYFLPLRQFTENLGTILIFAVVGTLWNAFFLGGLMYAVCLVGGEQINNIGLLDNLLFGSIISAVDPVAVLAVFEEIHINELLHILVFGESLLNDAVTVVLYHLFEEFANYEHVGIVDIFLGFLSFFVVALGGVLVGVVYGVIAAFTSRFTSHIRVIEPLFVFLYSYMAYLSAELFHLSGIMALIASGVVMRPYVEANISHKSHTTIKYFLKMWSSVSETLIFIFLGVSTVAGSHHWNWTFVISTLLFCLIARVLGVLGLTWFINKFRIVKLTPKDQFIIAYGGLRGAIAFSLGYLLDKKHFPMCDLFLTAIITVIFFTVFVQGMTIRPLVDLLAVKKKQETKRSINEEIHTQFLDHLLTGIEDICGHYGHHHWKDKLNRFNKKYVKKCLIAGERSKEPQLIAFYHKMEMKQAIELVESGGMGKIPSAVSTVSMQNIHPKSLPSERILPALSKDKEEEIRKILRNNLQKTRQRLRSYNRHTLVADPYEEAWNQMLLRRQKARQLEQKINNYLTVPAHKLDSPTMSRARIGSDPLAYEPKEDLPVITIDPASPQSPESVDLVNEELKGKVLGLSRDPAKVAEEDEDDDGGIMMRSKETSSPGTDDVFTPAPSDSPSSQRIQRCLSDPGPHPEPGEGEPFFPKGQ

Row | SMILES | IC50 [nM]
1 | N=C(N)NC(=O)c1ccc(C2CCN(C(=O)c3cccc(-n4cccn4)c3)CC2)c(C(F)(F)F)c1 [N-{4-[1-(3-Pyrazol-1-yl-benzoyl)-piperidin-4-yl]-3-trifluoromethyl-benzoyl}-guanidine] | 150
2 | Cc1cc(C2CCN(C(=O)C(C)(C)O)CC2)c(C(F)(F)F)cc1C(=O)NC(=N)N [N-{4-[1-(2-Hydroxy-2-methyl-propionyl)-piperidin-4-yl]-2-methyl-5-trifluoromethyl-benzoyl}-guanidine] | 16
3 | N=C(N)NC(=O)c1ccc(C2CCN(C(=O)C3(N)CCOCC3)CC2)c(C(F)(F)F)c1 [N-{4-[1-(4-Amino-tetrahydro-pyran-4-carbonyl)-piperidin-4-yl]-3-trifluoromethyl-benzoyl}-guanidine] | 18
4 | N=C(N)NC(=O)c1ccc(C2CCN(C(=O)CN3CCOCC3)CC2)c(C(F)(F)F)c1 [N-{4-[1-(2-Morpholin-4-yl-acetyl)-piperidin-4-yl]-3-trifluoromethyl-benzoyl}-guanidine] | 25
5 | N=C(N)NC(=O)c1ccc(C2CCN(C(=O)c3ccco3)C2)c(C(F)(F)F)c1 (stereo not drawn) [N-{4-[1-(Furan-2-carbonyl)-pyrrolidin-3-yl]-3-trifluoromethyl-benzoyl}-guanidine] | 11
6 | N=C(N)NC(=O)c1ccc(C2CCN(C(N)=O)CC2)c(C(F)(F)F)c1 [4-(4-Guanidinocarbonyl-2-trifluoromethyl-phenyl)-piperidine-1-carboxylic acid amide] | 6
7 | N=C(N)NC(=O)c1ccc(C2CCN(C(=O)C(N)CC(N)=O)CC2)c(C(F)(F)F)c1 (stereo not drawn) [3-Amino-4-[4-(4-guanidinocarbonyl-2-trifluoromethyl-phenyl)-piperidin-1-yl]-4-oxo-butyramide] | 15
8 | Cc1cc(C2CCN(C(=O)c3ccncc3)CC2)c(C(F)(F)F)cc1C(=O)NC(=N)N [N-{2-Methyl-4-[1-(pyridine-4-carbonyl)-piperidin-4-yl]-5-trifluoromethyl-benzoyl}-guanidine] | 7
9 | Cc1cc(C2CCN(C(=O)C(C)(C)N)CC2)c(C(F)(F)F)cc1C(=O)NC(=N)N [N-{4-[1-(2-Amino-2-methyl-propionyl)-piperidin-4-yl]-2-methyl-5-trifluoromethyl-benzoyl}-guanidine] | 10
10 | N=C(N)NC(=O)c1ccc(C2CCN(C(=O)c3ccc(S(N)(=O)=O)cc3)CC2)c(C(F)(F)F)c1 [4-[4-(4-Guanidinocarbonyl-2-trifluoromethyl-phenyl)-piperidine-1-carbonyl]-benzenesulfonamdide] | 13
11 | N=C(N)NC(=O)c1ccc(C2CCN(C(=O)C3(N)CCS(=O)(=O)CC3)CC2)c(C(F)(F)F)c1 [N-{4-[1-(4-Amino-1,1-dioxo-hexahydro-g-thiopyran-4-carbonyl)-piperidin-4-yl]-3-trifluoromethyl-benzoyl}-guanidine] | 11
12 | N#Cc1ccccc1C(=O)N1CCC(c2ccc(C(=O)NC(=N)N)cc2C(F)(F)F)CC1 [N-{4-[1-(2-Cyano-benzoyl)-piperidin-4-yl]-3-trifluoromethyl-benzoyl}-guanidine] | 62
13 | Cc1cc(C2CCN(C(=O)c3ccc(=O)[nH]c3)CC2)c(C(F)(F)F)cc1C(=O)NC(=N)N [N-{2-Methyl-4-[1-(6-oxo-1,6-dihydro-pyridine-3-carbonyl)-piperidin-4-yl]-5-trifluoromethyl-benzoyl}-guanidine] | 30
14 | N#Cc1ccc(C(=O)N2CCC(c3ccc(C(=O)NC(=N)N)cc3C(F)(F)F)CC2)cc1 [N-{4-[1-(4-Cyano-benzoyl)-piperidin-4-yl]-3-trifluoromethyl-benzoyl}-guanidine] | 24
15 | COc1ccc2cc(C(=O)N3CCC(c4ccc(C(=O)NC(=N)N)cc4C(F)(F)F)CC3)ccc2c1 [N-{4-[1-(6-Methoxy-naphthalene-2-carbonyl)-piperidin-4-yl]-3-trifluoromethyl-benzoyl}-guanidine] | 390
16 | CC(C)CC(N)C(=O)N1CCC(c2ccc(C(=O)NC(=N)N)cc2C(F)(F)F)CC1 (stereo not drawn) [N-{4-[1-(2-Amino-4-methyl-pentanoyl)-piperidin-4-yl]-3-trifluoromethyl-benzoyl}-guanidine] | 40
17 | COc1cc(C2CCN(C(C)=O)CC2)c(C(F)(F)F)cc1C(=O)NC(=N)N [N-[4-(1-Acetyl-piperidin-4-yl)-2-methoxy-5-trifluoromethyl-benzoyl]-guanidine] | 14
18 | N=C(N)NC(=O)c1ccc(C2CCN(C(=O)c3ccc[nH]3)CC2)cc1 [N-{4-[1-(1H-Pyrrole-2-carbonyl)-piperidin-4-yl]-benzoyl}-guanidine] | 385
19 | CN(C)CC(=O)N1CCC(c2ccc(C(=O)NC(=N)N)cc2C(F)(F)F)CC1 [N-{4-[1-(2-Dimethylamino-acetyl)-piperidin-4-yl]-3-trifluoromethyl-benzoyl}-guanidine] | 5
20 | C[S+]([O-])c1ccc(C(=O)N2CCC(c3ccc(C(=O)NC(=N)N)cc3C(F)(F)F)CC2)cc1 (stereo not drawn) [N-{4-[1-(4-Methanesulfinyl-benzoyl)-piperidin-4-yl]-3-trifluoromethyl-benzoyl}-guanidine] | 28

Row | SMILES | IC50 [nM]
21 | COc1cc(C2CCN(C(=O)[C@@H](OC(C)=O)c3ccccc3)CC2)c(C(F)(F)F)cc1C(=O)NC(=N)N [(S)-Acetic acid 2--[4-(4-guanidinocarbonyl-5-methoxy-2-trifluoromethyl-phenyl)-piperidin-1-yl]-2-oxo-1-phenyl-ethyl ester] | 92
22 | Cc1cc(C2CCN(C(=O)c3cccc(C(F)(F)F)c3)CC2)c(S(C)(=O)=O)cc1C(=O)NC(=N)N [N-{5-methanesulfonyl-2-methyl-4-[1-(3-trifluoromethyl-benzoyl)-piperidin-4-yl]-benzoyl}-guanidine] | 51
23 | CN(C)C(=O)c1ccc(C(=O)N2CCC(c3ccc(C(=O)NC(=N)N)cc3C(F)(F)F)CC2)cc1 [4-[4-(4-Guanidinocarbonyl-2-trifluoromethyl-phenyl)-piperidine-1-carbonyl]-N,N-dimethyl-benzamide] | 48
24 | N=C(N)NC(=O)c1ccc([C@H]2CCN(C(=O)c3ccco3)C2)c(C(F)(F)F)c1 [(R)-N-{4-[1-(Furan-2-carbonyl)-pyrrolidin-3-yl]-3-trifluoromethyl-benzoyl}-guanidine] | 28
25 | N=C(N)NC(=O)c1ccc(C2=CCN(C(=O)c3cnc[nH]3)CC2)c(C(F)(F)F)c1 [N-{4-[1-(3H-Imidazole-4-carbonyl)-1,2,3,6-tetrahydro-pyridin-4-yl]-3-trifluoromethyl-benzoyl}-guanidine] | 26
26 | Cc1cc(C2CCN(C(=O)c3ccc(F)cc3)CC2)c(S(C)(=O)=O)cc1C(=O)NC(=N)N [N-{4-[1-(4-Fluoro-benzoyl)-piperidin-4-yl]-5-methanesulfonyl-2-methyl-benzoyl}-guanidine] | 23
27 | N#Cc1ccc(C(=O)N2CCC(c3ccc(C(=O)NC(=N)N)cc3C(F)(F)F)CC2)cn1 [N-{4-[1-(6-Cyano-pyridine-3-carbonyl)-piperidin-4-yl]-3-trifluoromethyl-benzoyl}-guanidine] | 39
28 | COc1cc(C2CCN(C(=O)c3ccc(F)cc3)CC2)c(C(F)(F)F)cc1C(=O)NC(=N)N [N-{4-[1-(4-Fluoro-benzoyl)-piperidin-4-yl]-2-methoxy-5-trifluoromethyl-benzoyl}-guanidine] | 16
29 | CS(=O)(=O)c1cccc(C(=O)N2CCC(c3ccc(C(=O)NC(=N)N)cc3C(F)(F)F)CC2)c1 [N-{4-[1-(3-Methanesulfonyl-benzoyl)-piperidin-4-yl]-3-trifluoromethyl-benzoyl}-guanidine] | 63
30 | N=C(N)NC(=O)c1ccc(C2CCN(C(=O)[C@@H]3CCC(=O)N3)CC2)c(C(F)(F)F)c1 [(S)-N-{4-[1-(-5-Oxo-pyrrolidine-2-carbonyl)-piperidin-4-yl]-3-trifluoromethyl-benzoyl}-guanidine] | 11
31 | N=C(N)NC(=O)c1ccc(C2CCN(C(=O)Cn3ccnc3)CC2)c(C(F)(F)F)c1 [N-{4-[1-(2-Imidazol-1-yl-acetyl)-piperidin-4-yl]-3-trifluoromethyl-benzoyl}-guanidine] | 6
32 | C[S+]([O-])c1ccccc1C(=O)N1CCC(c2ccc(C(=O)NC(=N)N)cc2C(F)(F)F)CC1 (stereo not drawn) [N-{4-[1-(2-Methanesulfinyl-benzoyl)-piperidin-4-yl]-3-trifluoromethyl-benzoyl}-guanidine] | 54
33 | COc1cccnc1C(=O)N1CCC(c2ccc(C(=O)NC(=N)N)cc2C(F)(F)F)CC1 [N-{4-[1-(3-Methoxy-pyridine-2-carbonyl)-piperidin-4-yl]-3-trifluoromethyl-benzoyl}-guanidine] | 55
34 | COc1cccc(C(=O)N2CCC(c3ccc(C(=O)NC(=N)N)cc3C(F)(F)F)CC2)c1OC [N-{4-[1-(2,3-Dimethoxy-benzoyl)-piperidin-4-yl]-3-trifluoromethyl-benzoyl}-guanidine] | 46
35 | Cn1cnc(C[C@H](N)C(=O)N2CCC(c3ccc(C(=O)NC(=N)N)cc3C(F)(F)F)CC2)c1 [(S)-N-(4-{1-[2-Amino-3-(1-methyl-1H-imidazol-4-yl)-propionyl]-piperidin-4-yl}-3-trifluoromethyl-benzoyl)-guanidine] | 49
36 | N=C(N)NC(=O)c1ccc(C2CCN(C(=O)c3ccc4c(c3)OCCO4)CC2)c(C(F)(F)F)c1 [N-{4-[1-(2,3-Dihydro-benzo[1,4]dioxine-6-carbonyl)-piperidin-4-yl]-3-trifluoromethyl-benzoyl}-guanidine] | 130
37 | CC(C)C(N)C(=O)N1CCC(c2ccc(C(=O)NC(=N)N)cc2C(F)(F)F)CC1 (stereo not drawn) [N-{4-[1-(2-Amino-3-methyl-butyryl)-piperidin-4-yl]-3-trifluoromethyl-benzoyl}-guanidine] | 12
38 | N=C(N)NC(=O)c1ccc(C2CCN(C(=O)c3cnc4ccccc4c3)CC2)c(C(F)(F)F)c1 [N-{4-[1-(Quinoline-3-carbonyl)-piperidin-4-yl]-3-trifluoromethyl-benzoyl}-guanidine] | 70
39 | COCC(=O)N1CCC(c2cc(C)c(C(=O)NC(=N)N)cc2S(C)(=O)=O)CC1 [N-{5-methanesulfonyl-4-[1-(2-methoxy-acetyl)-piperidin-4-yl]-2-methyl-benzoyl}-guanidine] | 15

Source: patent US20110118262A1, “Pyrrolidinyl and Piperidinyl Compounds Useful as NHE-1 Inhibitiors” (BOEHRINGER INGELHEIM INTERNATIONAL GMBH, priority 2008, published 2011)
